Tests used:
[1] = system: ATF4 expression, HEK293T cells carrying the ATF4 luciferase reporter; test: ATF4 expression inhibition assay (ATF4 luciferase reporter); type: cell-based; conditions: Homo sapiens, HEK-293T, 100 nM thapsigargin, 3 hours
Experimental: The ATF4 reporter was prepared by fusing the human full length 5′UTR of ATF4 (NCBI Accession No. BC022088.2) upstream of the firefly luciferase coding sequence lacking the initiator methionine. The fused sequence was cloned into pLenti-EFla-C-Myc-DDK-IRES-Puro cloning vector (Origen #PS100085) using standard methods. Virus production was carried out by using Lenti-X™ Packaging Single Shots Protocol (Clonetech #631276). Viral particles were used to transduce HEK293T cells (ATCC #CRL-3216, ATCC Manassas, Va.), which were subsequently selected with puromycin to generate stable cell line. Cells were maintained at 37° C. and 5% CO2 in DMEM-F12 (Hyclone #SH30023.02) supplemented with 10% heat-inactivated fetal bovine serum (Gibco #16000-044), 2 mM L-glutamine (Gibco #25030-081), 100 U/ml penicillin, and 100 μg/ml streptomycin (Gibco #^15140-122).
HEK293T cells carrying the ATF4 luciferase reporter were plated on 96-well plates (Nunc) at 10,000 cells per well. Cells were treated two days after seeding with 100 nM thapsigargin (Tg) (Sigma-Aldrich #T9033) in the presence of different concentrations of selected compounds ranging from 1 nM to 10 μM. Cells without treatment or cells treated with Tg alone were used as controls. Assay plates containing cells were incubated for 3 hours at 37° C.
Luciferase reactions were performed using Luciferase Assay System (Promega #E1501) as specified by the manufacturer. Luminescence was read with an integration time of 1 s and a gain of 110 using a Cytation-5 multi-mode microplate reader (BioTek). Relative luminescence units were normalized to Tg treatment (0% inhibition) and untreated cells (100% inhibition) and the percentage of ATF4 inhibition was calculated.
Accordingly, inhibition of ATF4 expression as a result of the test compound indicates suppression of the ISR pathway.

[2] = system: Chinese hamster ovary (CHO) cells; test: Protein synthesis assay (puromycin incorporation, western blot); type: cell-based; conditions: 2 hours, media alone = 100%; for activity at 1 µM: Cricetulus griseus, unstressed CHO cells (without Tg), 1 μM test compound, read-out: % Protein synthesis relative to untreated (1 μM test compound); for % Recovery of protein synthesis (1 μM test compound): stressed CHO cells, 300 nM Tg plus 1 μM test compound, Tg alone = 0%
Experimental: Chinese hamster ovary (CHO) cells were maintained at 37° C. and 5% CO2 in Dulbecco's Modified Eagle's Media (DMEM) supplemented with 10% fetal bovine serum, 2 mM L-glutamine, 100 U/ml penicillin, and 100 μg/ml streptomycin. After reaching 80% of confluence, cells were detached and seeded on 6 well plates in complete media, allowed to recover overnight and treated for 2 hours with 1 μM of the test compound (to assess protein synthesis levels in unstressed condition), or for 2 hours with 300 nM Tg in the presence of 1 μM of the test compound (to assess the recovery of protein synthesis in a stressed condition). Cells with Tg alone were used as controls.
After the 2 hours treatments, media were replaced by adding 10 μg/ml puromycin (Sigma Aldrich #P8833) in complete media for 30 min. Media were removed and cells were lysed with SDS-PAGE lysis buffer. Lysates were transferred to 1.5 ml tubes and sonicated for 3 min and total protein amount were quantified using BCA Protein Assay Kit (Pierce). Equal amount of protein (30 μg) was loaded on SDS-PAGE gels. Proteins were transferred onto […] PVDF membranes (BioRad) and probed with primary antibodies diluted in Tris-buffered saline supplemented with 0.1% Tween 20 (Merck #S6996184 505) and 3% bovine serum albumin (Rockland #BSA-50).
Puromycin (12D10) (Merck #MABE343) and j-actin (Sigma Aldrich #A5441) antibodies were used as primary antibody. A HRP-conjugated secondary antibody (Rockland) was employed to detect immune-reactive bands using enhanced chemiluminescence (ECL Western Blotting Substrate, Pierce). Quantification of protein bands was done by densitometry using ImageJ software.
Percent increase of protein synthesis in unstressed cells (without Tg treatment) in the presence of media alone or certain test compounds is shown in Table 3. The percentage levels were normalized to the media alone condition, which correspond to 100% protein synthesis.
Percent recovery of protein synthesis in stressed cells (with Tg treatment) due to the test compounds at 1 μM is also shown in Table 3. The levels were normalized to the media alone and Tg alone conditions, which correspond to 100% and 0% respectively.

male Balb/c mice = test: Fasting-induced muscle atrophy; type: in vivo; conditions: fasted mice, 10 mg/kg oral, compared to vehicle-treated fasted mice
Experimental: Wild type eight-weeks-old male Balb/c mice obtained from the vivarium Fundación Ciencia & Vida Chile (Santiago, Chile) are used. Mice are housed in independent plastic cages in a room maintained at 25° C. with a 12-h:12-h light:dark cycle.
Twenty-four hours before and during the 2 days of fasted procedures, animals receive oral administration via feeding tubes (15 gauge) of vehicle (50% Polyethylene glycol 400 (Sigma-Aldrich P3265) in distilled water or 10 mg/kg of test compound formulated in vehicle solution.
After 2 days of fasting the animals are sacrificed and muscles are removed from both hindlimbs. Mice with feed and water ad libitum are used as control. […]
Upon collection, muscles are immediately frozen in liquid nitrogen and then stored at −80° C. […] Protein concentration in supernatants is determined using BCA Protein Assay Kit (Pierce). […]
Puromycin (12D10) (Merck Millipore), MuRF-1 (Santa Cruz Biotechnology) and 3-actin (Sigma-Aldrich) antibodies are used as primary antibodies. […] Quantification of protein bands is done by densitometry using ImageJ software.
Expression of the muscle atrophy marker MuRF-1 in quadriceps from fed or fasted mice treated with vehicle or compound 11 is shown in FIG. 1D. The levels were normalized to β-actin expression and fold change was calculated as the level relative to MuRF-1 levels from control mice (Fed) which correspond to 1.

Q: O=C(COc1ccc(Cl)c(F)c1)N[C@H]1CC[C@H](CNC(=O)c2cc3cc(Cl)ccc3o2)CC1 [Compound 11, trans-5-chloro-N-((4-(2-(4-chloro-3-fluorophenoxy)acetamido)cyclohexyl)methyl)benzofuran-2-carboxamide] was tested. Which IC50 [1] did it give?
A: 0.82 nM

Q: And the activity at 1 µM [2]?
A: 187%

Q: What about the “% Recovery of protein synthesis (1 μM test compound)” value (shortened to “% Recovery of protein synthesis”) [2] of the same compound?
A: 298.9%

Q: And the “Expression of the muscle atrophy marker MuRF-1 in quadriceps” value (male Balb/c mice)?
A: reduction of MuRF-1 expression

Q: CCN1C[C@@H](C(=O)N[C@H]2CC[C@H](NC(=O)COc3ccc(Cl)cc3)CC2)Oc2ccc(Cl)cc21 [Compound 89, trans-(S)-6-chloro-N-(4-(2-(4-chlorophenoxy)acetamido)cyclohexyl)-4-ethyl-3,4-dihydro-2H-benzo[b] [1,4]oxazine-2-carboxamide] was tested. Which IC50 [1] did it give?
A: < 1000 nM

Q: What about the activity at 1 µM [2] of the same compound?
A: 134%

Q: And the “% Recovery of protein synthesis” value [2]?
A: 21.5%

Q: What does the source list for COc1cc(Cl)ccc1OCC(=O)N[C@H]1CC[C@H](NC(=O)COc2ccc(Cl)cc2)CC1 [Compound 90, trans-2-(4-chloro-2-methoxyphenoxy)-N-(4-(2-(4-chlorophenoxy)acetamido)cyclohexyl)acetamide]?
A: IC50 [1]: 61.5 nM; activity at 1 µM [2]: 116%

Q: With Cc1cc(Cl)ccc1OCC(=O)N[C@H]1CC[C@H](NC(=O)COc2ccc(Cl)cc2)CC1 [Compound 91, trans-2-(4-chloro-2-methylphenoxy)-N-(4-(2-(4-chlorophenoxy)acetamido)cyclohexyl)acetamide] as the compound, how does the IC50 [1] read?
A: 28.7 nM

Q: What about the activity at 1 µM [2] of the same compound?
A: 94.8%

Q: Which results are given for NC(=O)c1cc(Cl)ccc1OCC(=O)N[C@H]1CC[C@H](NC(=O)COc2ccc(Cl)cc2)CC1 [Compound 92]?
A: IC50 [1]: 52.2 nM; activity at 1 µM [2]: 79.7%

Q: Which IC50 [1] does the source give for O=C(NC[C@H]1CC[C@H](NC(=O)COc2ccc(Cl)cc2)CC1)Nc1ccc(Cl)cc1 [Compound 93, trans-2-(4-chlorophenoxy)-N-(4-((3-(4-chlorophenyl)ureido)methyl)cyclohexyl)acetamide] here?
A: 3.88 nM

Q: What about the activity at 1 µM [2] of the same compound?
A: 88%

Q: What about the “% Recovery of protein synthesis” value [2] of the same compound?
A: 69.1%

Q: How did the IC50 [1] turn out when O=C(COc1ccc(Cl)cc1)N[C@H]1CC[C@H](NC(=O)C2CNc3ccc(Cl)cc3O2)CC1 (stereo partly drawn) [Compound 94, trans-7-chloro-N-(4-(2-(4-chlorophenoxy)acetamido)cyclohexyl)-3,4-dihydro-2H-benzo[b] [1,4]oxazine-2-carboxamide] was run?
A: 35.8 nM

Q: And the activity at 1 µM [2]?
A: 103%

Q: And the “% Recovery of protein synthesis” value [2]?
A: 58.4%

Q: Which results are given for O=C(COc1ccc(Cl)c(F)c1)NN1CCC(CNC(=O)c2cc3cc(Cl)ccc3o2)CC1 [Compound 95, 5-chloro-N-((1-(2-(4-chloro-3-fluorophenoxy)acetamido)piperidin-4-yl)methyl)benzofuran-2-carboxamide]?
A: IC50 [1]: 2.9 nM; activity at 1 µM [2]: 191%; % Recovery of protein synthesis (1 μM test compound) [2]: 133.4%

Q: For O=C(NN1CCC(CNC(=O)c2cc3cc(Cl)ccc3o2)CC1)c1ccc2cc(Cl)ccc2n1 [Compound 96, 6-chloro-N-(4-((5-chlorobenzofuran-2-carboxamido)methyl)piperidin-1-yl)quinoline-2-carboxamide], which IC50 [1] is on record?
A: 1.05 nM

Q: And the activity at 1 µM [2]?
A: 258%

Q: O=C(NCC1CCN(NC(=O)c2cc3cc(Cl)ccc3o2)CC1)c1cc2cc(Cl)ccc2o1 [Compound 97, 5-chloro-N-(4-((5-chlorobenzofuran-2-carboxamido)methyl)piperidin-1-yl)benzofuran-2-carboxamide] was tested. Which IC50 [1] did it give?
A: 0.59 nM

Q: And the activity at 1 µM [2]?
A: 211%

Q: And the “% Recovery of protein synthesis” value [2]?
A: 249.6%

Q: For O=C(COc1ccc(Cl)c(F)c1)NN1CCC(CNC(=O)c2ccc(Cl)cn2)CC1 [Compound 98, 5-chloro-N-((1-(2-(4-chloro-3-fluorophenoxy)acetamido)piperidin-4-yl)methyl)picolinamide], which IC50 [1] is on record?
A: 30.4 nM

Q: And the activity at 1 µM [2]?
A: -24.9%

Q: What about the “% Recovery of protein synthesis” value [2] of the same compound?
A: 124.5%

Q: What does the source list for O=C(COc1ccc(Cl)cc1)NN1CCC(CNC(=O)Nc2ccc(Cl)cc2)CC1 [Compound 99, 2-(4-chlorophenoxy)-N-(4-((3-(4-chlorophenyl)ureido)methyl)piperidin-1-yl)acetamide]?
A: IC50 [1]: 14.5 nM; activity at 1 µM [2]: -42%; % Recovery of protein synthesis (1 μM test compound) [2]: 122.3%

Reference: patent publication US20210317102A1, “INHIBITORS OF INTEGRATED STRESS RESPONSE PATHWAY” (Praxis Biotech LLC, priority 2019, published 2021)
